This assay deals with T1, DNA repair protein RAD51 homolog 1 (Homo sapiens, UniProt Q06609).
T1 sequence (Q06609 whole entry): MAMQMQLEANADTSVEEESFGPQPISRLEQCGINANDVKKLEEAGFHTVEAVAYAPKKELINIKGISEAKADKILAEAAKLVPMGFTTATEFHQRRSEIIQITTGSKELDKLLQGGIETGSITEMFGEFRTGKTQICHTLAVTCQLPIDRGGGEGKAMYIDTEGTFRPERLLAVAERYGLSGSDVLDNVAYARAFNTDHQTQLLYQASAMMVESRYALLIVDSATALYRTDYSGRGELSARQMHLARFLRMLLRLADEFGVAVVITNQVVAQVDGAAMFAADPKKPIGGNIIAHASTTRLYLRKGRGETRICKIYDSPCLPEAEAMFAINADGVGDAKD
The experiment in a line: RAD51 recombination inhibitor potency, dose response, biochemical, homologous recombination, fluorescence (AID 1435).

The structures appear in SMILES notation.

As a reminder, the IC50 is the concentration that inhibits the measured activity by half.

For `O=C1OCC2OC(O)C(O)C(O)C2OC(=O)c2cc(O)c(O)c(O)c2-c2c(O)c(O)c3oc(=O)c4c(c(O)c(O)c5oc(=O)c2c3c54)-c2c1cc(O)c(O)c2O` (stereo not given) [SMR000445568], the half-inhibitory concentration (IC50) was found to be 0.176 µM. Still for that read-out and setting: for `CCOC(=O)c1c(NS(C)(=O)=O)sc2c1CCC(C)C2` (stereo not given) [ethyl 2-(methanesulfonamido)-6-methyl-4,5,6,7-tetrahydro-1-benzothiophene-3-carboxylate] the value was above 85 µM. With `COC(=O)c1nc(N)sc1-c1ccccc1` [methyl 2-azanyl-5-phenyl-1,3-thiazole-4-carboxylate], the IC50 (inactive by the depositor's call) was found to be 42.5 µM. Take `COC(=O)C(C=Nc1cccc(Cl)c1C)c1ncc(C(F)(F)F)cc1Cl` (stereo not given) [methyl (Z)-3-(3-chloro-2-methylanilino)-2-[3-chloro-5-(trifluoromethyl)-2-pyridinyl]-2-propenoate]: the IC50 is above 85 µM. For `COC(=O)COc1ccc(S(=O)(=O)NCCC2=CCCCC2)cc1C` [methyl [4-({[2-(1-cyclohexen-1-yl)ethyl]amino}sulfonyl)-2-methylphenoxy]acetate], the half-maximal inhibitory concentration (IC50) is above 85 µM.
